The values below come from US7253281B2, “Anti-obesity 1,2,3,4,10,10a-hexahydropyrazino[1,2-a]indoles” (Hoffmann-La Roche Inc., priority 2000, dated 2007).

Bounds are passed on as bounds.

Data set [1] addresses T1, 5-HT2C receptors in a CHO cell line (Homo sapiens, UniProt P28335).
T1 construct: expressed in transfected cells; host or cells: CHO cell line
T1 sequence (P28335 33-458): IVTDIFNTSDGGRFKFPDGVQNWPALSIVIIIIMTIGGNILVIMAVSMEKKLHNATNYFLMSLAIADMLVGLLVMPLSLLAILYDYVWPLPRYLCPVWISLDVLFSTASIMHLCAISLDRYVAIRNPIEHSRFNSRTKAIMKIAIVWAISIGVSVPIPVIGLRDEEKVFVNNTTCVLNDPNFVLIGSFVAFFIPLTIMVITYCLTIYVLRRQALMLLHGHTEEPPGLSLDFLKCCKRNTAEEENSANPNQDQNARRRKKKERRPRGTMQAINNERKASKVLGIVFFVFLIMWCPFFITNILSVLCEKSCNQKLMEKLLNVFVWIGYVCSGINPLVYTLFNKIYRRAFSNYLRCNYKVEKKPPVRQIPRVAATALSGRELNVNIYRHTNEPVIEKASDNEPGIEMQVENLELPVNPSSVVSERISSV
The data set can be described thus: Binding to 5-HT2C receptor, [3H]-5-HT, Method (a). Particulars: read-out: Ki (2C). Here is the method: (§1) The binding of compounds of formula (I) to serotonin receptors was determined in vitro by standard methods. The preparations were investigated in accordance with the assays given hereinafter.
Method (a): For the binding to the 5-HT2C receptor the 5-HT2C receptors were radiolabeled with [^3H]-5-HT. The affinity of the compounds for 5-HT2C receptors in a CHO cell line was determined according to the procedure of D. Hoyer, G. Engel and H. O. Kalkman, European J. Pharmacol., 1985, 118, 13–23.

Data set [2] addresses T2, human 5-HT2B receptors in a CHO cell line (Homo sapiens, UniProt P41595).
T2 construct: expressed in transfected cells; host or cells: CHO cell line
The data set can be described thus: Binding to 5-HT2B receptor, [3H]-5-HT, Method (b). The note with it: read-out: Ki (2B). On the procedure:
as §1
Method (b): For the binding to the 5-HT2B receptor the 5-HT2B receptors were radiolabeled with [^3H]-5-HT. The affinity of the compounds for human 5-HT2B receptors in a CHO cell line was determined according to the procedure of K. Schmuck, C. Ullmer, P. Engels and H. Lubbert, FEBS Lett., 1994, 342, 85–90.

Data set [3] has as its target T3, 5-HT2A receptors in a CHO cell line (Homo sapiens, UniProt P28223).
T3 construct: expressed in transfected cells; host or cells: CHO cell line
Put plainly: Binding to 5-HT2A receptor, [125I]-DOI, Method (c). The note with it: read-out: Ki (2A). On the procedure:
as §1
Method (c): For the binding to the 5-HT2A receptor the 5-HT2A receptors were radiolabeled with [^125I]-DOI. The affinity of the compounds for 5-HT2A receptors in a CHO cell line was determined according to the procedure of D. J. McKenna and S. J. Peroutka, J. Neurosci., 1989, 9, 3482–90.

In data set [4] the target is T4, human 5-HT2A receptor (CHO cells) (Homo sapiens, UniProt P28223).
T4 construct: expressed in transfected cells; host or cells: CHO cells
T4 sequence (P28223 whole entry): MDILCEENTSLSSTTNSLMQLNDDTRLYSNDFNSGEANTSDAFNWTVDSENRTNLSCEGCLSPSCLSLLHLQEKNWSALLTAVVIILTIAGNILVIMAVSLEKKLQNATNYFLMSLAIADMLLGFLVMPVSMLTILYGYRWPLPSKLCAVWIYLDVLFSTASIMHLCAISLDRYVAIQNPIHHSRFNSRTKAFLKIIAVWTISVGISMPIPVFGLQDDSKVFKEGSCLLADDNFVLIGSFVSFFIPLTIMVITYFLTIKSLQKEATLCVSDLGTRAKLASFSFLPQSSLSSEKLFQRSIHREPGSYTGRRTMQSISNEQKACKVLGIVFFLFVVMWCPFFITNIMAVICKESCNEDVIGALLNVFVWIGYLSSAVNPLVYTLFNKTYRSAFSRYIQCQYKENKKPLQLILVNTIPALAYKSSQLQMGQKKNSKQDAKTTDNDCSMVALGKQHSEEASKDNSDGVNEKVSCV
The data set can be described thus: Functional activity, FLIPR calcium assay, h5-HT2A. Format: cell-based. Here is the method: (§2) The functional activity of compounds of formula (I) was assayed using a Fluorimetric Imaging Plate reader (FLIPR). CHO cells expressing the human 5-HT2C or human 5-HT2A receptors were counted and plated into standard 96 well microtitre plates on the day before testing to give a confluent monolayer. The cells were then dye loaded with the calcium sensitive dye, Fluo-3-AM. Unincorporated dye was removed using an automated cell washer to leave a total volume of 100 μL/well of assay buffer (Hanks balanced salt solution containing 20 mM Hepes and 2.5 mM probenecid). The drug (dissolved in 50 μL of the assay buffer) was added at a rate of 70 μL/sec to each well of the FLIPR 96 well plate during fluorescence measurements. The measurements were taken at 1 sec intervals and the maximum fluorescent signal was measured (approx 10–15 secs after drug addition) and compared with the response produced by 10 μM 5-HT (defined as 100%) to which it was expressed as a percentage response (relative efficacy). Dose response curves were constructed using Graphpad Prism (Graph Software Inc.).

The target in data set [5] is T5, human 5-HT2C receptor (CHO cells) (Homo sapiens, UniProt P28335).
T5 construct: expressed in transfected cells; host or cells: CHO cells
T5 sequence (P28335 33-458): T1 sequence (P28335 33-458)
Put plainly: Functional activity, FLIPR calcium assay, h5-HT2C. Format: cell-based. On the procedure: as §2

In a further data set the target is h5-HT2B (Homo sapiens, UniProt P41595). The data set can be described thus: Functional activity, FLIPR calcium assay, h5-HT2B. Format: cell-based.
Sequence of h5-HT2B (P41595 whole entry): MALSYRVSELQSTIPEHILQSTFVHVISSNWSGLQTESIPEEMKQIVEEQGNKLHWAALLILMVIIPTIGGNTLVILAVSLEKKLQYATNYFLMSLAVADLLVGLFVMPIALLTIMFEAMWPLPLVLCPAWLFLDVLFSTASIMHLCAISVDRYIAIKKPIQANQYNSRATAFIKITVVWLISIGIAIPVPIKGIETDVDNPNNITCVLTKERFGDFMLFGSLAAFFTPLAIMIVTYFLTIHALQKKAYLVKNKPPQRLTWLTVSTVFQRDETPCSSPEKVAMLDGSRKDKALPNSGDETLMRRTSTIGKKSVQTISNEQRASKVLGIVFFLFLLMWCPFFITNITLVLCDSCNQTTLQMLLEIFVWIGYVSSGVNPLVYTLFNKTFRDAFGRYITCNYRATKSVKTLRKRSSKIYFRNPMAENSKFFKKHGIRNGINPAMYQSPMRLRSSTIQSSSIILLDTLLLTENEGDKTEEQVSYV
The mark [6] stands for this setting: relative to response of 10 μM 5-HT (100%).

T2 sequence (P41595 whole entry): as above
T3 sequence (P28223 whole entry): as the sequence (P28223 whole entry) above

What is called melting point is the temperature of the solid-liquid transition. Turning to `C[C@@H]1CNC[C@H]2Cc3ccc(C(F)(F)F)cc3N21.Cl`, the melting point lay within 221 to 224 °C.
Same read-out and setting: with `C[C@@H]1CNC[C@@H]2Cc3ccc(C(F)(F)F)cc3N21.Cl` the figure was 245 to 250 °C (dec.); with `Cc1cc2c(cc1C(F)(F)F)N1[C@H](CNC[C@H]1C)C2.Cl`, 200 to 205 °C.
Still for that read-out and setting: to `CC(=O)Nc1ccc2c(c1)N1[C@@H](CNC[C@H]1C)C2.Cl` belongs > 250 °C (dec.); to `C[C@@H]1CNC[C@H]2Cc3ccc(CO)cc3N21.Cl`, 66 °C (dec.).
Still for that read-out and setting: to `CCCCNC(=O)c1ccc2c(c1)N1[C@@H](CNC[C@H]1C)C2.Cl` belongs 125 °C (dec.).
By Ki is commonly meant the dissociation constant of the complex between target and ligand, obtained from inhibition or displacement. In the case of `O=C1OCCN1CN1CCN2c3cccc(Br)c3C[C@@H]2C1` [Example 3, (10aR)-3-(9-Bromo-3,4,10,10a-tetrahydro-1H-pyrazino[1,2-a]indol-2-ylmethyl)-oxazolidin-2-one], the values for the Ki in data set [1], in data set [2] and in data set [3] were 0.026 µM, 0.11 µM and 0.23 µM, respectively.
A word on the EC50: it is the concentration giving half of the maximal effect. Turning to `C[C@@H]1CNC[C@H]2Cc3ccc(Cl)cc3N21` [Example 8, (4R,10aR)-7-Chloro-4-methyl-1,2,3,4,10,10a-hexahydro-pyrazino[1,2-a]indole], the EC50 in data set [4] (FLIPR, CHO cells) was 0.019 µM; in data set [5] (FLIPR, CHO cells), 0.0004 µM; at h5-HT2B (FLIPR), 0.0034 µM. The “h5-HT2A Relative Efficacy (%)” value in data set [4] (setting [6]) was found to be 60%. Further, in data set [5] (setting [6]), the “h5-HT2c Relative Efficacy (%)” value was found to be 97%. In addition, the “h5-HT2B Relative Efficacy (%)” value at h5-HT2B (setting [6]) worked out at 62%.
